Tests used:
cells = test: Cell viability after extended treatment (trypan blue, bright field); type: cell-based
Source text: FIG. 3A is a growth curve analysis of HCMV (MOI=3) in untreated (WT), vehicle treated (DMSO) or Retro94-treated cells. Samples were harvested at 24, 48, 72, 96, 120 and 144 hpi. […] Nuclei labeled with DAPI (blue). Scale bars: 10 μm. FIG. 3C is a growth curve analysis of HCMV (MOI=0.05) in DMSO control (DMSO) or Retro94-treated cells. Samples were harvested at 3, 6, 9, 12 and 15 dpi. Asterisks indicate change of media with fresh Retro94. […] Bright field images of cell monolayers at 4 days post treatment are shown below graph. Brefeldin A was included as a positive control for cell death. Values in FIGS. 3A and 3C are from one representative experiment.
Normal human dermal fibroblasts, HDFs (Cell Applications Inc. 106-05N), and normal human lung fibroblasts, MRC-5 cells (ATCC CCL-171) were maintained in Dulbecco's modified Eagle's medium (DMEM) (Lonza). Human retinal pigmented epithelial cells (ARPE-19), maintained in DMEM/Ham's F12 (1:1 mix) (Lonza), human embryonic lung fibroblasts (HEL) and mouse embryonic fibroblasts (NIH 3T3), maintained in DMEM (Lonza) were obtained (Spector D J, Yetming K. Virology. 2010; 407(2):171-7; Spector D J. Virology. 2015, 476:345-54). All media was supplemented with 10% fetal bovine serum, 100 U/ml penicillin and 100 µg/ml streptomycin, and 2 mM GlutaMAX (Gibco). Cells were maintained at 37° C. with 5% CO2. […]

HSV-1 = test: Virus titer analysis of HSV; type: cell-based; details: MOI=3; harvested at 24 hpi
Source text: FIGS. 10A-10B show data to provide support for Retro94 and derivatives being effective against other herpesviruses. […] Samples were harvested at 24 hpi. Representative data shown are from independent replicates. FIG. 10B provides a table showing low nanomolar EC50 values of Retro94F against other herpesviruses.

HCMV = HCMV multi-step growth curve (MOI=0.05); type: cell-based, Human cytomegalovirus (HCMV); details: MOI 0.05 pfu/cell; 15 dpi; media exchanged and fresh drug added at 6 dpi
Experimental: Infections were done at an MOI of 0.05 for multi-step growth curves and MOI 3 for single-step growth curves. Infections were done on NHDFs unless otherwise noted. Virus was incubated with cells for 2 hours before addition of fresh media. For growth curve analyses, virus was harvested at the indicated time-points for each experiment by scraping the cells into the medium, sonicating 10 times with 1 second pulses, vortexing for 15 seconds, and centrifuging at 13,000 rpm for 10 min. Supernatants were collected, aliquoted and flash-frozen in liquid nitrogen before storage at −80° C.
For MCMV growth curve analysis, samples were titrated on NIH 3T3 cells and titers were calculated using the 50% tissue culture infective dose method. Both HCMV virus stocks and samples for growth curves were titrated by serial dilutions on MRC5 cells and quantified by the immunological detection of immediate-early proteins as previously described (Britt W J. Human cytomegalovirus: propagation, quantification, and storage. Curr Protoc Microbiol. 2010; Chapter 14: Unit 14E.3). The numbers of stained nuclei were acquired on a Nikon Eclipse Ti Inverted microscope and fluorescent nuclei were quantified using the NIS Elements Software. Images of viral foci from infection of ARPE19 cells were also acquired on Eclipse Ti Inverted microscope. The number and size of foci were quantified using NIS Elements software. […]

[1] = tested on: cytoplasmic viral assembly compartment (cVAC); test: cVAC morphology / localization of viral and cellular markers by fluorescence microscopy; type: cell-based, human
Experimental: Coverslips or chamber slides containing either uninfected or HCMV-infected cells were washed in phosphate-buffered saline (PBS) and fixed in 2% paraformaldehyde for 15 min at room temperature. Cells were blocked in PBS containing 10% human serum, 0.5% Tween-20, and 5% glycine. 0.1% Triton-X 100 was added for permeabilization. Primary and secondary antibodies as specified in the antibody section were diluted in blocking buffer. Nuclei were stained with DAPI prior to mounting with ProLong Diamond Antifade Mountant (ThermoScientific). For live-cell experiments using the pp28-mCherry virus, cells were grown on glass bottom microwell dishes (MatTek Corporation) and nuclei were stained with NucBlue Live Cell Stain ReadyProbes reagent (ThermoScientific). All images were acquired using a C2+ Confocal Microscope System (Nikon). Images were processed using NIS elements software. Images shown are volume renderings of Z-stacks.

HCMV-infected cells = test: Western blot analysis of HCMV-infected cell lysates; type: cell-based, human; details: MOI=3, 10 μM
Experimental: Total cell lysates were prepared from uninfected or HCMV-infected cells (MOI=3) at the indicated time points by harvesting lystates in radioimmunoprecipitation assay buffer (1% NP-40, 1% sodium deoxycholate, 0.1% sodium dodecyl sulfate [SDS], 0.15 M NaCl, 10 mM sodium phosphate [pH 7.2], 2 mM EDTA, 50 mM NaF, 1 mM phenylmethylsulfonyl fluoride, […], 0.2 mM Na3VO4, 1 μg/ml leupeptin). After centrifugation, the supernatant was collected and stored at −80° C. The protein was quantified by a Bradford assay (Bio-Rad) and samples were analyzed by SDS-PAGE gel electrophoresis and immunoblotting on nitrocellulose or PVDF membrane blocked with 5% milk or 5% BSA in tris-buffered saline (0.1% tween). Antibody dilutions were in accordance with manufacturer's instructions.

## Cc1nc(-c2ccc(C3N(C)c4ccccc4C(=O)N3c3ccccc3)s2)cs1 (stereo not drawn) [Retro94, 1-Methyl-2-(5-(2-methylthiazol-4-yl)thiophen-2-yl)-3phenyl-2,3-dihydroquinazolin-4(1H)-one]
cells
  effect on cell viability or cell morphology: no effect
HSV-1
  decrease of levels of HSV-1: ~90%
HCMV
  reduction in the amount of infectious virus produced: five
[1]; 96 hpi, 10 μM
  localization of viral proteins pp28, pp150 and glycoprotein B: dispersed throughout the cytoplasm and were no longer present in the cVAC
[1]; MOI=3, 96 hpi
  localization of GS27 and GS28: mostly remained in a perinuclear localization
  localization of markers of Golgi (GM130), TGN (p230) and endosomes (EEA1): retained their perinuclear localization
  normal cVAC morphology: did not form
[1]; added at 2 or 24 hpi, imaged at 96 hpi
  cVAC as detected by pp28-mCherry: no area representing a cVAC was detected
[1]; added at 48 hpi, imaged at 96 hpi
  pp28 localization (pp28-mCherry): largely dispersed throughout the cell
[1]; added at 72 hpi, imaged at 96 hpi
  perinuclear pp28 regions reminiscent of the cVAC: more prominent
HCMV-infected cells
  STX5 protein level during infection: did not reach the same level as observed in control-treated samples
HCMV-infected cells; 24-96 hpi
  steady state levels of immediate-early and late viral proteins: not affected
